Measured values taken from patent publication US4145337A, “Aminoethylglycine containing polypeptides” (Hoffmann-La Roche Inc., priority 1977, dated 1979).

What was measured:
peptic ulcer bleeding = settings: infusion in man, Rasche et al. 1976; cited from earlier work
[1] = tested on: restraint-immersion induced gastric ulceration; assay: Mouse restraint-immersion test, antiulcerogenic activity; assay type: in vivo
Procedure: In both studies CD-1 male mice weighing between 18-25 g were used. The mice were fasted for 19 hours prior to the initiation of restraint-immersion which involved restraining animals in rubber hoses and immersion in water (21° C.) to the height of the xiphoid process. In the first study, just prior to the initiation of the restraint-immersion procedure, mice received, via the subcutaneous route, graded amounts (0.1 to 10 mg/kg b.w.) of somatostatin (Compound A), Compound F, or vehicle (5% acacia); this administration was repeated two hours later. In the second study, the compounds (Compound A, Compound L, or vehicle) were administered only once, just prior to the initiation of the restraint-immersion procedure. Following four hours of restraint-immersion the animals (both studies) were killed and their stomachs examined for ulceration. The degree of ulceration was determined by the amount of visible blood present in the stomach and was rated on a scale of 0 to 4, with 0 being no detectable blood and 4 being a massive amount of blood. All compounds were dispersed in 5% acacia and administered at a dosage volume of 0.2 ml per 20 grams of body weight. The antiulcerogenic ED50 values were calculated using percent protection as the response and a computer program ("ED50") based on the probit method of Finney (Finney, "Probit Analysis", Cambridge University Press, 1971). The comparative effectiveness (relative potency R. P.) of somatostatin and Compound F (first study) or somatostatin and Compound L (second study) was determined from the dose responses using an "ED50" computer program.

gastric mucus production = assay: Stimulation of mucoprotein production: gastric mucosal carbohydrates and total protein; assay type: in vivo, rat; settings: 800 μg/kg i.p.
Procedure: Overnight fasted rats received saline solutions of either Compound M or Compound A at the antisecretory dose of 800μg/kg administered intraperitoneally. Control rats were given only vehicle. All animals were sacrificed by decapitation 1 hour after dosing. After opening the abdomen the stomach was removed and its contents were washed away with 10 ml of a 0.85% NaCl solution. The excised stomachs were cut open along the greater curvature and the exposed gastric mucosa was carefully scraped. The scrapings were homogenized in 5 ml of the 0.85% NaCl solution and subjected to chemical analysis. Total hexoses were determined by the anthrone reaction, which is based on the formation in concentrated sulfuric acid of furfural derivatives which react with anthrone to form a blue-green color; this reaction has the advantage of being applied directly to the glycoprotein with color formation occuring concurrently with the liberation of sugars (Methods in Enzymology, Vol. VIII, pp. 4-5 1966). Fucose in the unhydrolyzed mucoprotein was determined by the Dische-Shettes cysteine-sulfuric acid reaction for methyl pentoses. This method allows accurate determination of fucose even in the presence of large amounts of hexoses and peptide material (Methods in Eznymology, Vol. VIII, pp 11-13 , 1966).
Total protein was determined using the Lowry method.

[2] = tested on: duodenal ulcers produced by prolonged administration of pentagastrin or histamine; settings: cats, continuous i.v. infusion 0.62 to 5.0 μg/kg-hr; cited from earlier work
[3] = tested on: gastrointestinal bleeding from residual ulcers; settings: patient, 250 μg i.v. bolus then 250 μg per hour for 67 hours; cited from earlier work
[4] = tested on: restraint ulcer formation; settings: cited from earlier work
gastric secretion = settings: chronic fistula dog, Torchiana et al. 1977; cited from earlier work
[5] = tested on: basal gastric secretion and gastrin release; settings: Bloom et al. 1974; cited from earlier work
[6] = 1 hour after dosing, mucosal scrapings

SMILES: C[C@H](N)C(=O)NCC(=O)N[C@H]1CSSC[C@@H](C(=O)O)NC(=O)[C@H](CO)NC(=O)[C@H]([C@@H](C)O)NC(=O)[C@H](Cc2ccccc2)NC(=O)[C@H]([C@@H](C)O)NC(=O)[C@H](CCCCN)NC(=O)[C@H](Cc2c[nH]c3ccccc23)NC(=O)[C@H](Cc2ccccc2)NC(=O)[C@H](Cc2ccccc2)NC(=O)[C@H](CC(N)=O)NC(=O)[C@H](CCCCN)NC1=O [Compound A, somatostatin]
- effect on peptic ulcer bleeding (peptic ulcer bleeding): stop peptic ulcer bleeding
- prevention of restraint-immersion induced gastric ulceration, in words ([1]; first study, s.c. twice): effective in preventing restraint-immersion induced gastric ulceration
- antiulcerogenic ED50 ([1]; first study: s.c. just prior to restraint-immersion, repeated two hours later, 4 h restraint-immersion): 0.35 mg/kg
- ED50 ([1]; second study: administered only once just prior to restraint-immersion, 4 h): 6.70 mg/kg
- Fucose, gastric mucosal concentration (mean) (gastric mucus production; [6]): 46.2 μg/total sample
- Hexose, gastric mucosal concentration (mean) (gastric mucus production; [6]): 235.3 μg/total sample
- Total Protein, gastric mucosal concentration (mean) (gastric mucus production; [6]): 350.0 μg/total sample
- gastric mucosal carbohydrates versus control, in words (gastric mucus production; 1 hour after treatment): did not appear to influence concentration of carbohydrates
- gastric mucosal total protein versus control, in words (gastric mucus production; 1 hour after treatment): produced an increment of the total protein
- prevention of duodenal ulcers [2]: effectively prevented the formation of duodenal ulcers
- effect on bleeding [3]: immediate cessation of the bleeding after 1 hour
- endoscopy at the end of treatment period [3]: two ulcers in the process of healing
- ulcers relative to untreated animals ([4]; 100 μg linear protamine-zinc-somatostatin/rat s.c. before, 3 h and 6 h, after 9 hours of immobilization): 1/5
- effect on restraint ulcer formation ([4]; subcutaneous administration in rats, Zierden et al. 1976): prophylactic effect on restraint ulcer formation
- duration of inhibitory effects on gastric secretion (gastric secretion): short duration
- effect on basal gastric secretion and gastrin release [5]: inhibits basal gastric secretion and gastrin release
